One series concerns the target β-gal (Escherichia coli, UniProt P00722). The settings on record: for T1 signal in the presence of β-gal compared with cleaved agent 11: 24 h incubation. Here is the method:
MR images were acquired on a Bruker Pharmscan 7 T imaging spectrometer fitted with shielded gradient coils at 25° C. Image analysis was carried out using Paravision 5.0 p13 software (Bruker, Billerica, MA, USA) with monoexponential curve-fitting of image intensities of selected regions of interest (ROIs) for each axial slice. […] Exact Gd(III) concentration was verified by ICP-MS. Either 10 μL of enzyme stock solution (50% enzyme assay buffer, 50% glycerol, at 521 U/mL β-gal) or 10 μL of a 50% enzyme assay buffer/50% glycerol solution (used as a control) were added to a 190 μL aliquot of each complex. After this addition, the final concentration of each complex was 475 μM, with 26.1 U/mL of β-gal. The solutions were incubated at 37° C. for 24 hours, then aliquoted to 5, ¾″ flame-sealed Pasteur pipets. The bottom sections of the flame-sealed pipets were then scored with a glass scribe, broken into small capillaries, and imaged using a RF RES 300 1H 089/023 quadrature transmit receive 23 mm volume coil (Bruker BioSpin, Billerica, MA, USA). T1 relaxation times were measured using a rapid-acquisition rapid-echo RARE-VTR T1-map pulse sequence with the following imaging parameters: TE (11.0 ms), TR (500.0 ms), field of view (FOV)=25×25 mm2, matrix size (MTX)=256×256, number of axial slices=5, slice thickness (SI)=1.0 mm, and averages (NEX)=3, and total scan time was 2:36:57. T2 values were measured using a multislice multiecho (MSME) T2-map pulse sequence, with static TR (5000 ms) and 32 fitted echoes in 11 ms intervals (11, 22, . . . , 352 ms). Imaging parameters were as follows: FOV=25×25 mm2, MTX=256×256, number of axial slices=4, SI=1.0 mm, NEX=3, and a total scan time=48 min. T1 images and times can be found in FIG. 14 and T2 maps and times can be found in FIG. 18.

The nature of series [1]: Relaxivity (1.4 T) in MOPS and MOPS/CO3^2−. The class given is physicochemical. The settings on record: for Δr1 relative to the cleaved control product 11: intramolecular series 10a-d. Here is the method: While measurements of q indicate how well an agent can restrict water access to the GdIII center, the most important property for a bio-activated contrast agent is the change in relaxivity upon enzymatic cleavage (r1). To evaluate the signal change in the presence of CO32−, relaxivities of the intermolecular activated agents were measured in two different buffer conditions, the non-coordinating buffer MOPS and MOPS/CO32−.
T1 relaxation times were obtained for 5a-c (FIG. 13), and complexes 10a-d (FIG. 14), and 11 at 37° C. at 60 MHz (1.4 T) on a Bruker mq60 minispec spectrometer (Billerica, MA). Three 1 mM solutions of each complex were prepared in four different buffer conditions 1) 10 mm 3-(N-morpholino)propanesulfonic acid (MOPS), 100 mm NaCl, pH 7.4, 2) 10 mm MOPS, 24 mm NaHCO3, 100 mm NaCl, pH 7.4, 3) Dulbecco's Phosphate Buffer (DPBS) pH 7.3 Life Technologies, and 4) b-galactosidase enzyme assay buffer, 200 mm sodium phosphate, 100 mm bmercaptoethanol, 2 mm MgCl2, pH 7.3 (FIG. 15). Three sets of five serial dilutions (about 1 mm, 0.5 mm, 0.25 mm, 0.125 mm and 0.0625 mm) were prepared for each complex. T1 relaxation rates were measured using an inversion recovery pule sequence (t1_ir_mb) with a 10 ms first pulse separation, recycle delay and final pulse separation ≥5 T1. T1 relaxation rates were plotted as a function of GdIII concentrations as determined by ICP-MS, r1/r2 was obtained from linear fit of concentration vs. T1 as described in Equation (1).

The nature of series [2]: Complex stability measured by relaxivity (T1). The class given is physicochemical. The settings on record: for change in T1 over time (stability): 1 mM in enzyme buffer pH 7.3, over 140 hours.
For series [3] the following is noted: cited from earlier work; for link to nephrogenic systemic fibrosis (NSF): clinical use.
For series [4] the following is noted: cited from earlier work.
In the next series the target is T1, β-galactosidase (Escherichia coli, UniProt P00722).
T1 construct: purchased Sigma Aldrich
T1 sequence (P00722 2-1024): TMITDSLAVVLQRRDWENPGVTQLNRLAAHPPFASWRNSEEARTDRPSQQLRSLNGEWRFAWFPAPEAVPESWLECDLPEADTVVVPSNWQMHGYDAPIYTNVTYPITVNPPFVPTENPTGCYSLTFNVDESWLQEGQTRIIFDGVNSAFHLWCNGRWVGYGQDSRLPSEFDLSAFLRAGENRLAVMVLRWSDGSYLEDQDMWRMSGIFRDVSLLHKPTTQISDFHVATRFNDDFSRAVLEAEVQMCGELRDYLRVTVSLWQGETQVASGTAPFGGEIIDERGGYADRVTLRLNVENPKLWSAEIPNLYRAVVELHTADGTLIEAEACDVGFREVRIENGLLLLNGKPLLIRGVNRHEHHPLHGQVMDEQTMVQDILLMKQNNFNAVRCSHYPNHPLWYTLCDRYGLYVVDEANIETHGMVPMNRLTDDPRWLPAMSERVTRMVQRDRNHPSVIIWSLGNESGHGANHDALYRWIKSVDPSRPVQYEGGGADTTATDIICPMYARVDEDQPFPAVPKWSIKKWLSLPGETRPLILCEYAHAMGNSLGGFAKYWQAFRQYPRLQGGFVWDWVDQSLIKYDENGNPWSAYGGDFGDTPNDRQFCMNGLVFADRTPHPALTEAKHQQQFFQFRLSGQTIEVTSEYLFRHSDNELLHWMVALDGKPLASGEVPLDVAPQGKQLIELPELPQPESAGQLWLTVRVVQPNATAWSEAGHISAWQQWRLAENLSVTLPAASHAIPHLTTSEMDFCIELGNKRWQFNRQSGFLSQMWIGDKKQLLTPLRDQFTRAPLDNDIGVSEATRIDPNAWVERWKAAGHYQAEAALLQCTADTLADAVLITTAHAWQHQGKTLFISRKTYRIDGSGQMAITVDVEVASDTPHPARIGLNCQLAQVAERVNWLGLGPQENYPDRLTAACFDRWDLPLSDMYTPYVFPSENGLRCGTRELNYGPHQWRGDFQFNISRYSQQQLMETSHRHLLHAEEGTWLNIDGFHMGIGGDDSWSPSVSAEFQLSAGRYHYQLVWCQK
The class given is biochemical. The conditions noted are these: 25° C., TES buffer, 1 mM MgCl2, 150 mM NaCl. Here is the method:
Catalytic efficiencies for five substrates, 5a-c, ONPG, and PNPG were evaluated by UV-vis spectroscopy (Table 3). ONPG and PNPG are literature standards that were used to ensure the assay was performed adequately and to serve as benchmarks of activation kinetics in the absence of the GdIII chelate. […] Catalytic efficiency is directly related to the imaging window wherein activation to the r1, on state is competing with clearance.
Enzyme activation kinetics were determined by the method of initial rates for compounds 5a-c via the appearance of the nitrophenol byproduct of activation. The characteristic absorption was monitored at 420 nm. Concentrations of substrate used were 0, 0.05, 0.1, 0.12, 0.15, 0.3, 0.4, 0.5, 0.75, 1, and 2 mM. Each concentration was measured in triplicate and exact concentrations were measured by ICP-MS (see Table 2).

Where [5] appears, read: intravenous, two-compartment open-model.

Consider six compounds from patent US12508328B2, “Bio-activated reporters to visualize, in real time, specific gene therapy products” (Northwestern University, priority 2019, dated 2025).

Sequence of β-gal (P00722 2-1024): as above

On to `CCOC(=O)CCCCCCCNc1cc(COC(=O)NCCN2CCN(CC(=O)[O-])CCN(CC(=O)[O-])CCN(CC(=O)[O-])CC2)ccc1O[C@@H]1O[C@H](CO)[C@H](O)[C@H](O)[C@H]1O.[Gd+3]` [10d, Gadolinium(III)-1-(4-(2-(1-(4,7,10-triscarboxymethyl-(1,4,7,10tetraazacyclododecyl)))ethylcarbamoyloxymethyl)-2-((8-ethoxy-8-oxooctyl)amino)phenyl)-β-D-galactopyranose], for which the “T1 signal in the presence of β-gal compared with cleaved agent 11” value at β-gal (7 T solution phantoms) is given as “approximately the same”. Also, the “Δr1 relative to the cleaved control product 11” value in series [1] (37° C.) is reported as “negative”. For the same compound, the “change in T1 over time (stability)” value in series [2] was “No significant change in T1”. Also, the “change in T1 over time (stability) in cell culture media” value in series [2] (cell culture media, over 140 hours) is “No significant change in T1”.
As to `CNC(=O)CN(CCN(CCN(CC(=O)[O-])CC(=O)NC)CC(=O)[O-])CC(=O)[O-].[Gd+3]` [Omniscan], the “link to nephrogenic systemic fibrosis (NSF)” value in series [3] is reported as “associated with the onset of NSF”.
Take `CCOC(=O)CCCNc1cc(COC(=O)NCCN2CCN(CC(=O)[O-])CCN(CC(=O)[O-])CCN(CC(=O)[O-])CC2)ccc1O[C@@H]1O[C@H](CO)[C@H](O)[C@H](O)[C@H]1O.[Gd+3]` [10b, Gadolinium(III)-1-(4-(2-(1-(4,7,10-triscarboxymethyl-(1,4,7,10tetraazacyclododecyl)))ethylcarbamoyloxymethyl)-2-((4-ethoxy-4-oxobutyl)amino)phenyl)-β-D-galactopyranose]: at β-gal (7 T T1 solution phantoms), the “change in MR contrast +/−β-gal” value is given as “greatest change in MR contrast”. The “T1 signal in the presence of β-gal compared with cleaved agent 11” value at β-gal (7 T solution phantoms) is “does not appear to fully activate”. Moreover, the T1 on β-gal (7 T solution phantoms, assay buffer, 24 h, +β-gal 26.1 U/mL) amounted to 378 ms. Besides, in series [1] (10a-d, MOPS), the “Δr1 in MOPS” value is listed as “largest”. The “Δr1 relative to the cleaved control product 11” value in series [1] (37° C.) is listed as “positive”. In series [2], the “change in T1 over time (stability)” value is reported as “No significant change in T1”.
For `CNC[C@H](O)[C@@H](O)[C@H](O)[C@H](O)CO.CNC[C@H](O)[C@@H](O)[C@H](O)[C@H](O)CO.O=C([O-])CN(CCN(CC(=O)[O-])CC(=O)O)CCN(CC(=O)[O-])CC(=O)O.[Gd+3]` [Magnevist, gadopentate dimeglumine], in series [3], the “link to nephrogenic systemic fibrosis (NSF)” value is “associated with the onset of NSF”. In addition, in series [3] (intrathecal), the “dose shown to enhance after intrathecal contrast delivery” value is 0.004 mmol/kg. Moreover, the “safe dose in preclinical safety studies” value in series [3] (intravenous delivery) is recorded as 50 × the normal dose. Besides, the volume of distribution in series [4] (equal to the extracellular space) is around 0.266 L/kg. For the same compound, the “binding to human serum protein” value in series [4] (in vivo) was “has not been shown to bind”. Further, in series [4] (setting [5]), the distribution half-life was 12 min and the elimination half-life was 96 min. In series [4] (intravenous), the “dose excreted in the urine by 24 hours” value is listed as 91% and the “dose excreted in the urine within 6 hours” value is recorded as around 83%.
For the compound `CCOC(=O)CNc1cc(COC(=O)NCCN2CCN(CC(=O)[O-])CCN(CC(=O)[O-])CCN(CC(=O)[O-])CC2)ccc1O[C@@H]1O[C@H](CO)[C@H](O)[C@H](O)[C@H]1O.[Gd+3]` [10a, Gadolinium(III)-1-(4-(2-(1-(4,7,10-triscarboxymethyl-(1,4,7,10tetraazacyclododecyl)))ethylcarbamoyloxymethyl)-2-((2-ethoxy-2-oxoethyl)amino)phenyl)-β-D-galactopyranose], the “relaxivity within the intramolecular series” value in series [1] (10a-d) was “highest relativity of the series”. Moreover, the “Δr1 relative to the cleaved control product 11” value in series [1] (37° C.) was “negative”. In series [2], the “change in T1 over time (stability)” value is “No significant change in T1”.
The term Km denotes the concentration of substrate that gives half-maximal velocity. Regarding `O=C([O-])CN1CCN(CCNC(=O)OCc2ccc([N+](=O)[O-])c(O[C@@H]3O[C@H](CO)[C@H](O)[C@H](O)[C@H]3O)c2)CCN(CC(=O)[O-])CCN(CC(=O)[O-])CC1.[Gd+3]` [5b, Gadolinium(III)-1-(5-(2-(1-(4,7,10-triscarboxymethyl-(1,4,7,10tetraazacyclododecyl)))ethylcarbamoyloxymethyl)-2-nitrophenyl)-β-D-galactopyranose], in series [1] (intermolecular series 5a-c, 37° C.), the “Δr1 relative to the cleaved complex 11 (percent change in relaxivity, dark to bright)” value is 26%. Moreover, on β-galactosidase (420 nm), the Kcat is listed as 679 +/− 135.8 S−1. For the same compound, on β-galactosidase (nitro-phenol absorbance 420 nm), the Km stood at 791 µM.
